Reference: US8609663B2, “Compounds for modulating TLR2” (priority 2009, dated 2013)
Entries after “also recorded” stand apart in the source; their conditions may differ.

What was measured:
[1] = system: LCMV-induced NF-κB activity; assay: cells; type: cell-based, human; settings: for IC50: Homo sapiens, HEK293, read-out: 50% Inhibitory Dose
[2] = system: cytokine responses in mouse primary macrophages; type: cell-based
HLA-ABC = type: cell-based, human
[3] = system: LCMV-induced IL-8 production; type: cell-based, human
[4] = system: Pam2CSK4 (TLR2 ligand) and LPS (TLR4 ligand) induced cytokine production; parameters: species or system C57BL/6 mice; settings: mouse
HSV-1 = HSV-1 (VP16-GFP strain) replication in Vero cells, GFP fluorescence; type: cell-based, Herpes simplex virus 1 (HSV-1); settings: 24 hours, dose-dependent manner
[5] = system: TNF-α-induced IL-8 production; type: cell-based, human
LCMV [6] = type: cell-based, lymphocytic choriomeningitis virus (LCMV); settings: 3.3 μM
LCMV-Arm [7] = type: in vivo, C57BL/6 mice
[8] = system: IL-8 production in primary human monocytes; type: cell-based
Tacaribe virus (TCRV) = type: cell-based
LCMV-Arm [9] = type: cell-based, lymphocytic choriomeningitis virus (LCMV)
[10] = system: Rift Valley Fever Virus (RVFV); type: cell-based
[11] = Preliminary toxicity observation in mice; settings: injected intravenously at 16.67 mg/kg (200 μg/mouse)
[12] = system: HSV-induced NF-κB activation; assay: HSV-induced NF-κB luciferase assay in SZ10 cells; type: cell-based, human; settings: HSV-1 7134R
TLR2 = type: cell-based, human
[13] = system: TNF-α-induced NF-κB activity; type: cell-based, human
LCMV [14] = type: cell-based, lymphocytic choriomeningitis virus (LCMV)

O=C1CC(c2ccc(F)cc2)CC2=C1C=Nc1ccccc1N2 (centres unmarked) [Compound 133]
% Inhibition [1]: 60%
LCMV-induced NF-κB activity and cytokine response [1]: specifically inhibit
IC50 [1]: 800 nM

C=C1C(=O)O[C@@H]2C[C@@H](C)[C@@H]3C=CC(=O)[C@@]3(C)[C@@H](O)[C@H]12 [Helenalin, reference compound]
LCMV-induced NF-κB activation [1]: effectively blocked

CC1CCN(Cc2ccc(NC(=O)Nc3cn(C)c(=O)c4ccccc34)cc2)CC1 [Compound 108]
% Inhibition [1]: 39%
IC50 [1]: > 6600 nM

O=C(CCS(=O)(=O)c1nc(-c2ccc3c(c2)OCO3)cc(C(F)(F)F)n1)Nc1ccc(OC(F)(F)F)cc1 [Compound 125]
% Inhibition [1]: 60%
LCMV-induced NF-κB activity and cytokine response [1]: specifically inhibit
IC50 [1]: 800 nM

O=C(/C=C/c1ccc(O)c(O)c1)OCCc1ccccc1 [CAPE, reference compound]
LCMV-induced NF-κB activation [1]: effectively blocked

O=C(NCCc1ccc(O)c(O)c1)c1nnc(-c2cccnc2)o1 [Compound 115]
% Inhibition [1]: 40%
IC50 [1]: > 6600 nM

O=C(NCCc1ccc(-c2ccccc2)cc1)c1nnc(-c2cccnc2)o1 [Compound 116]
% Inhibition [1]: 50%
IC50 [1]: 800 nM

O=C(NCc1noc2ccccc12)Nc1cccc(Cl)c1 [Compound 103]
% Inhibition [1]: 26%
IC50 [1]: > 6600 nM

COc1ccc(C2C3=C(CCCC3=O)Nc3[nH]nc(-c4ccc(Cl)cc4)c32)cc1OC (centres unmarked) [Compound 132]
% Inhibition [1]: 75%
LCMV-induced NF-κB activity and cytokine response [1]: specifically inhibit
IC50 [1]: 800 nM

Cc1ccc2onc(CNC(=O)Nc3ccc(CN4CCC(C)CC4)cc3)c2c1 [Compound 101]
% Inhibition [1]: 60%
IC50 [1]: 1600 nM

Cc1ccc2onc(CNC(=O)Nc3ccccc3N3CCN(C)CC3)c2c1 [Compound 109]
% Inhibition [1]: 39%
IC50 [1]: > 6600 nM

CCOc1ccc(CCNC(=O)c2nc(-c3cccnc3)no2)cc1 [Compound 120]
% Inhibition [1]: 75%
LCMV-induced NF-κB activity and cytokine response [1]: specifically inhibit
IC50 [1]: 800 nM

COc1cc(/C=C/C(=O)CC(=O)/C=C/c2ccc(O)c(OC)c2)ccc1O [Curcumin, reference compound]
LCMV-induced NF-κB activation [1]: effectively blocked

COc1ccc(CCC(C)NC(=O)c2nnc(-c3cccnc3)o2)cc1 (centres unmarked) [Compound 117]
% Inhibition [1]: 27%
IC50 [1]: > 6600 nM

COC(=O)c1ccc(NC(=O)NCc2noc3ccccc23)cc1 [Compound 106]
% Inhibition [1]: 75%
IC50 [1]: 1600 nM

COc1cc(CCNC(=O)c2nnc(-c3cccnc3)o2)cc(OC)c1 [Compound 112]
% Inhibition [1]: 65%
IC50 [1]: 400 nM

O=C(NCCc1ccc(O)cc1)c1nnc(-c2cccnc2)o1 [Compound 114]
% Inhibition [1]: 31%
IC50 [1]: > 6600 nM

CC1CCN(Cc2ccc(NC(=O)Nc3cccs3)cc2)CC1 [Compound 107]
% Inhibition [1]: 47%
IC50 [1]: 3000 nM

O=C(NCCc1cccc(Cl)c1)c1nnc(-c2cccnc2)o1 [Compound 118]
% Inhibition [1]: 50%
IC50 [1]: 3300 nM

O=C(NCc1cccnc1)c1ccc(CSCc2cccc(F)c2)o1 [Compound 121]
% Inhibition [1]: 60%
LCMV-induced NF-κB activity and cytokine response [1]: specifically inhibit
IC50 [1]: 800 nM

CC(C)[C@]12O[C@H]1[C@@H]1O[C@]13[C@]1(O[C@H]1C[C@H]1C4=C(CC[C@@]13C)C(=O)OC4)[C@@H]2O [Triptolide, reference compound]
LCMV-induced NF-κB activation [1]: effectively blocked

O=C(CN(C1=NC2CS(=O)(=O)CC2S1)c1ccc(F)cc1)Nc1ccccc1C(F)(F)F (centres unmarked) [Compound 134]
% Inhibition [1]: 50%
LCMV-induced NF-κB activity and cytokine response [1]: specifically inhibit
IC50 [1]: 1600 nM

O=C(NCCc1ccccc1)c1nnc(-c2cccnc2)o1 [Compound 110]
% Inhibition [1]: 40%
IC50 [1]: > 6600 nM

Cc1ccc2onc(CNC(=O)Nc3cccc(C(F)(F)F)c3)c2c1 [Compound 102]
% Inhibition [1]: 27%
IC50 [1]: > 6600 nM

COc1cccc(NC(=O)NCc2noc3ccccc23)c1 [Compound 105]
% Inhibition [1]: 20%
IC50 [1]: > 6600 nM

CC1CCN(Cc2ccc(NC(=O)NCc3noc4ccccc34)cc2)CC1 [Compound 100]
HSV-1 induced MCP-1 production [2]: efficiently blocked
HSV-1 induced RANTES production [2]: efficiently blocked
LCMV induced production of MCP-1 [2]: significantly inhibited
LCMV induced production of RANTES [2]: significantly inhibited
LPS induced MCP-1 production [2]: inhibited
Pam2CSK4 induced MCP-1 production [2]: inhibited
Pam2CSK4 induced RANTES in vitro in macrophages [2]: inhibit
poly IC induced production of MCP-1 [2]: did not affect
poly IC induced production of RANTES [2]: did not affect
expression of HLA-ABC (HLA-ABC): did not affect; also recorded: not affected
LCMV-induced IL-8 production [3]: dramatically inhibited
LPS induced IL-6 induction in vivo [4]: inhibits
Pam2CSK4 induced IL-6 induction in vivo [4]: inhibits
LPS induced IL-6 production in serum ([4]; in vivo, iv): significantly blocked
LPS induced MCP-1 production in serum ([4]; in vivo, iv): significantly blocked
LPS-induced RANTES production in serum ([4]; in vivo, iv): did not affect
Pam2CSK4-induced RANTES production in serum ([4]; in vivo, iv): did not affect
Pam2CSK4 induced IL-6 production in serum ([4]; in vivo, iv): significantly blocked
Pam2CSK4 induced MCP-1 production in serum ([4]; in vivo, iv): significantly blocked
HSV-1 replication (HSV-1): inhibits
% Inhibition [1]: 80%
LCMV-induced NF-κB activity [1]: dramatically inhibited
LCMV-induced NF-κB activity and cytokine response [1]: specifically inhibit
IC50 [1]: 1000 nM
TNF-α-induced IL-8 production [5]: did not affect
LCMV replication in Vero cells (LCMV [6]): significantly inhibited
levels of virus in the spleen (LCMV-Arm [7]; 48 h post-infection, n=8, p<0.05 vs DMSO-treated or untreated mice): significantly lower
LCMV-induced inflammation in a mouse model (LCMV-Arm [7]; Example 13, i.v. 16.67 mg/kg (200 μg/mouse), serum MCP-1): Inhibits
LCMV induced MCP-1 production in serum (LCMV-Arm [7]; single dose 400 μg/mouse (16 mg/kg), 18 h post-infection, vs DMSO): significant decrease
LCMV induced type I IFN production (LCMV-Arm [7]; single dose 400 μg/mouse, 18 h post-infection): did not affect
LCMV induced IL-8 production [8]: significant (p<0,01 by two-tailed Student's t test) reduction
poly IC induced production of IL-8 [8]: did not affect
recombinant human TNF-α induced production of IL-8 [8]: did not affect
replication and production of TCRV (Tacaribe virus (TCRV)): can inhibit
LCMV replication in BHK-21 cells (LCMV-Arm [9]): inhibited
activity against RVFV [10]: no role
toxic effect in mice [11]: no apparent toxic effect
HSV-induced NF-κB activation [12]: Blocks
LCMV-induced enhanced expression of TLR2 (TLR2): specifically prevented
TNF-α-induced expression of TLR2 (TLR2): did not affect
TNF-α-induced NF-κB activity [13]: did not affect
LCMV replication (expression of LCMV-NP) in SZ10 cells (LCMV [14]): significantly inhibited; also recorded: dramatically inhibited
LCMV replication in HEK cells that did not express TLR2 (LCMV [14]): could also inhibit

CCc1ccc(CCNC(=O)c2nnc(-c3cccnc3)o2)cc1 [Compound 113]
% Inhibition [1]: 30%
IC50 [1]: > 6600 nM

O=C(Nc1cccnc1)c1ccc(NC(=O)C2OCCc3ccccc32)cc1 (centres unmarked) [Compound 135]
% Inhibition [1]: 60%
LCMV-induced NF-κB activity and cytokine response [1]: specifically inhibit
IC50 [1]: 800 nM

O=C(COCc1cc(-c2ccco2)on1)Nc1cccnc1 [Compound 122]
Pam2CSK4 induced RANTES in vitro in macrophages [2]: inhibit
% Inhibition [1]: 50%
LCMV-induced NF-κB activity and cytokine response [1]: specifically inhibit
IC50 [1]: 3300 nM
